Data set [1] in a line: Slurry conversion of crystalline forms in isopropanol and water, XRPD analysis. The data set is classed as physicochemical. The protocol:
In an alternate method, 150 mg of Edonentan (Form 3) was added to a mixture of isopropanol and water (1 mL and 2 mL, respectively). The resulting slurry was stirred at 15° C. for 48 hours and then filtered.
In an alternate method, 200 mg of Edonentan (Form 1) was added to a mixture of isopropanol and water (1.3 mL and 2.6 mL, respectively). The resulting solution was heated to 80° C. and stirred for 24 h, then cooled and filtered.

For data set [2] the following is noted: cited from earlier work.
Data set [3] can be described thus: In vitro melanin binding assay with synthetic melanin. The following applies: 200 μM; melanin 1 mg/mL.
Experimental: A concentration of 200 μM chloroquine was used as a positive control.
The conditions of data set [4]: pH 7.4 in 2 mg/mL melanin solution; cited from earlier work.

In the case of `Cc1onc(NS(=O)(=O)c2ccccc2-c2ccc(-c3ncco3)cc2CN(C)C(=O)CC(C)(C)C)c1C` [Form 3], the “Solubility pH 7.0 Phosphate Buffer” value stood at 251 μg/mL.
Consider `Cc1onc(NS(=O)(=O)c2ccccc2-c2ccc(-c3ncco3)cc2CN(C)C(=O)CC(C)(C)C)c1C` [Form 4], for which the “relative thermodynamic stability of crystalline forms” value is on record as “more thermodynamically stable than Form 1” in data set [1] (Form 1 in isopropanol and water, 80° C., 24 h); “more thermodynamically stable than Form 3” in data set [1] (slurry of Form 3 in isopropanol and water, 15° C., 48 hours).
Take `Cc1onc(NS(=O)(=O)c2ccccc2-c2ccc(-c3ncco3)cc2CN(C)C(=O)CC(C)(C)C)c1C` [Edonentan, N-[[2′-[[(4,5-dimethyl-3-isoxazolyl)amino]sulfonyl]-4-(2-oxazolyl)[1,1′-biphenyl]-2-yl]methyl]-N,3,3-trimethylbutanamide]: the “oral Tmax” value in data set [2] was 24 min.
For the molecule `Cc1onc(NS(=O)(=O)c2ccccc2-c2ccc(-c3ncco3)cc2CN(C)C(=O)CC(C)(C)C)c1C` [Form 2], the “Solubility pH 7.0 Phosphate Buffer” value is recorded as 35 μg/mL.
Turning to `CCN(CC)CCCC(C)Nc1ccnc2cc(Cl)ccc12` (centres unmarked) [chloroquine], in data set [3], the “binding to melanin (% bound)” value was 99.5 % bound. In addition, in data set [4], the “bound to melanin, literature values” is recorded as 92-99.6 % bound.
On to `Cc1onc(NS(=O)(=O)c2ccccc2-c2ccc(-c3ncco3)cc2CN(C)C(=O)CC(C)(C)C)c1C` [Form 1], for which the “Solubility pH 7.0 Phosphate Buffer” value was determined as 264 μg/mL.

Values taken from US12622894B2, “Pharmaceutical compositions and intravitreal drug delivery systems for the treatment of ocular diseases” (Perfuse Therapeutics, Inc., priority 2021, dated 2026).
